Where two headings read alike, the source gives them in different places.
Columns and labels:
[1] = cited from earlier work
[2] = animal studies and clinical trials; cited from earlier work
[3] = tested on: MDA-MB-435 breast xenografts
Procedure: Female NCr nude mice were injected intravenously (q7dx3, beginning day 15) via the lateral tail vein. […] Paclitaxel (⋄) was prepared in […]/12.5% ethanol/75% saline and injected iv (q1dx5) at a dose of 15 mg/kg/dose. Drug-to-lipid ratio was 0.3/1 (w/w). Data points represent median tumor volume (n=6).
(§1) The anti-tumor activity of multiple (q7d3) dose schedules of liposomal vinorelbine was evaluated in several human xenograft tumor models. The goal of this series of studies was to identify the benefits of encapsulation by evaluating a series of doses and determining the therapeutic index in several xenograft models. Models were selected based on the following criteria: (1) activity in the single dose studies, (2) a comprehensive literature review of vinca alkaloid efficacy, (3) a desire to include at least 2-3 models that represent the clinical use of vinorelbine, and (4) a desire to include models with a range of sensitivity to vinorelbine so that improvements resulting from the use of the liposome formulation might be identified. Based on these criteria, MX-1 and MDA-MB-435 breast models, the NCl-H460 NSCLC model and the HT-29 and DLD-1 colon models were chosen.
(§2) Therapeutic index (TI) is a parameter that quantifies the “safety factor” of a particular therapy. TI is a ratio of a toxicity parameter and a biological activity parameter. Therefore, a higher ratio represents a greater potential margin of safety. For these studies, TI is defined as follows: […]
(§3) The minimal effective dose (MED) was set according to NCl activity criteria as the dose resulting in an optimal % T/C of 40. This information was derived from Table 7.

MX-1 breast xenografts [4] = tested on: MX-1 breast xenografts
Procedure: Female NCr nude mice were injected intravenously (q7dx3) via the lateral tail vein on days indicated by an asterisk (*). […] Drug-to-lipid ratio was 0.3/1 (w/w). Data points represent median tumor volume (n=6).
as §1, §2, §3

MX-1 breast xenografts [5] = assay: Single dose anti-tumor activity, MX-1 breast xenograft; assay type: in vivo
Procedure: Female NCr nude mice were injected intravenously via the lateral tail vein on day 8 post-tumor-implantation with saline (♦), NVB at 34.0 mg/kg (◯) and 25.5 mg/kg (□), or NVB-TCS at 15.0 mg/kg (●) and 11.0 mg/kg (▪) at a drug-to-lipid ratio of 0.3:1 (w/w). The arrow on the x-axis denotes the day of drug administration. Data points represent mean±SEM (n=10). […]
Tumor models investigated included RXF393 (renal), MX-1 (breast), LX-1 (small cell lung cancer), PC-3 (prostate), and HT29 (colon). These models were known to be sensitive to vinorelbine. Tumor fragments were implanted subcutaneously in the flank of NCr nu/nu mice. […] Animal weights and tumor size were determined twice weekly.

DLD-1 colon xenografts = tested on: DLD-1 colon xenografts
Procedure: Female NCr nude mice were injected intravenously (q7dx3) via the lateral tail vein on days indicated by an asterisk (*). […] Irinotecan (⋄) was prepared in saline and injected iv (q4dx3) at a dose of 90 mg/kg/dose. Drug-to-lipid ratio was 0.3/1 (w/w). Data points represent median tumor volume (n=6).
as §1, §2, §3

[6] = clinical hematological toxicity

Which results are given for `CCC1=C[C@@H]2CN(C1)Cc1c([nH]c3ccccc13)[C@@](C(=O)OC)(c1cc3c(cc1OC)N(C)[C@H]1[C@@](O)(C(=O)OC)[C@H](OC(C)=O)[C@]4(CC)C=CCN5CC[C@]31[C@@H]54)C2` [VRL, 5′-noranhydrovinblastine]?
anemia [1, 6]: 83%; leukopenia [1, 6]: 92%; thrombocytopenia [1, 6]: 5%; Peripheral neuropathy ([1]; clinical): 25%; phlebitis ([1]; clinical): 7%; drug excreted in feces [2]: 40-50%; drug excreted in urine [2]: ~20%; % T/C (optimal % T/C following final treatment) ([3]; 5 mg/kg i.v. q7dx3): −3%; DRD (drug related deaths, n = 6) ([3]; 5 mg/kg i.v. q7dx3): 0; NCI Score ([3]; 5 mg/kg i.v. q7dx3): 2; T-C (tumor growth delay to 1000 mm^3) ([3]; 5 mg/kg i.v. q7dx3): 37.5; TF (tumor free animals at the end of study) ([3]; 5 mg/kg i.v. q7dx3, n=6): 0; % T/C (optimal % T/C following final treatment) ([3]; 10 mg/kg i.v. q7dx3): −100%; DRD (drug related deaths, n = 6) ([3]; 10 mg/kg i.v. q7dx3): 0; NCI Score ([3]; 10 mg/kg i.v. q7dx3): 3; T-C (tumor growth delay to 1000 mm^3) ([3]; 10 mg/kg i.v. q7dx3): >62; TF (tumor free animals at the end of study) ([3]; 10 mg/kg i.v. q7dx3, n=6): 1; % T/C (optimal % T/C following final treatment) ([3]; 20 mg/kg i.v. q7dx3): −100%; DRD (drug related deaths, n = 6) ([3]; 20 mg/kg i.v. q7dx3): 2; NCI Score ([3]; 20 mg/kg i.v. q7dx3): 4; T-C (tumor growth delay to 1000 mm^3) ([3]; 20 mg/kg i.v. q7dx3): >62; TF (tumor free animals at the end of study) ([3]; 20 mg/kg i.v. q7dx3, n=6): 4; % T/C (optimal % T/C following final treatment) ([3]; 30 mg/kg i.v. q7dx3): −100%; DRD (drug related deaths, n = 6) ([3]; 30 mg/kg i.v. q7dx3): 1; NCI Score ([3]; 30 mg/kg i.v. q7dx3): 4; T-C (tumor growth delay to 1000 mm^3) ([3]; 30 mg/kg i.v. q7dx3): >62; TF (tumor free animals at the end of study) ([3]; 30 mg/kg i.v. q7dx3, n=6): 3; % T/C (optimal % T/C following final treatment) (MX-1 breast xenografts [4]; 5 mg/kg i.v. q7dx3): 100%; DRD (drug related deaths, n = 6) (MX-1 breast xenografts [4]; 5 mg/kg i.v. q7dx3): 0; NCI Score (MX-1 breast xenografts [4]; 5 mg/kg i.v. q7dx3): 0; T-C (tumor growth delay to 1000 mm^3) (MX-1 breast xenografts [4]; 5 mg/kg i.v. q7dx3): 0; TF (tumor free animals at the end of study) (MX-1 breast xenografts [4]; 5 mg/kg i.v. q7dx3, n=6): 0; % T/C (optimal % T/C following final treatment) (MX-1 breast xenografts [4]; 10 mg/kg i.v. q7dx3): 38%; DRD (drug related deaths, n = 6) (MX-1 breast xenografts [4]; 10 mg/kg i.v. q7dx3): 0; NCI Score (MX-1 breast xenografts [4]; 10 mg/kg i.v. q7dx3): 1; T-C (tumor growth delay to 1000 mm^3) (MX-1 breast xenografts [4]; 10 mg/kg i.v. q7dx3): 7.3; TF (tumor free animals at the end of study) (MX-1 breast xenografts [4]; 10 mg/kg i.v. q7dx3, n=6): 0; % T/C (optimal % T/C following final treatment) (MX-1 breast xenografts [4]; 20 mg/kg i.v. q7dx3): −28%; DRD (drug related deaths, n = 6) (MX-1 breast xenografts [4]; 20 mg/kg i.v. q7dx3): 0; NCI Score (MX-1 breast xenografts [4]; 20 mg/kg i.v. q7dx3): 3; T-C (tumor growth delay to 1000 mm^3) (MX-1 breast xenografts [4]; 20 mg/kg i.v. q7dx3): 28.5; TF (tumor free animals at the end of study) (MX-1 breast xenografts [4]; 20 mg/kg i.v. q7dx3, n=6): 0; % T/C (optimal % T/C following final treatment) (MX-1 breast xenografts [5]; single i.v. dose 25.5 mg/kg): 13%; DRD (drug related deaths) (MX-1 breast xenografts [5]; single i.v. dose 25.5 mg/kg): 1/10; MWL (maximum mean weight loss per treatment group) (MX-1 breast xenografts [5]; single i.v. dose 25.5 mg/kg): −14.8; NCI Score (MX-1 breast xenografts [5]; single i.v. dose 25.5 mg/kg): 1; T-C (tumor growth delay to 1000 mm^3) (MX-1 breast xenografts [5]; single i.v. dose 25.5 mg/kg): 13; TF (tumor free animals at the end of study) (MX-1 breast xenografts [5]; single i.v. dose 25.5 mg/kg): 1/9; % T/C (optimal % T/C following final treatment) (MX-1 breast xenografts [5]; single i.v. dose 34 mg/kg): 11%; DRD (drug related deaths) (MX-1 breast xenografts [5]; single i.v. dose 34 mg/kg): 0/10; MWL (maximum mean weight loss per treatment group) (MX-1 breast xenografts [5]; single i.v. dose 34 mg/kg): −17.4; NCI Score (MX-1 breast xenografts [5]; single i.v. dose 34 mg/kg): 1; T-C (tumor growth delay to 1000 mm^3) (MX-1 breast xenografts [5]; single i.v. dose 34 mg/kg): 16; TF (tumor free animals at the end of study) (MX-1 breast xenografts [5]; single i.v. dose 34 mg/kg): 3/10; % T/C (optimal % T/C following final treatment) (DLD-1 colon xenografts; 5 mg/kg i.v. q7dx3): 88%; DRD (drug related deaths, n = 6) (DLD-1 colon xenografts; 5 mg/kg i.v. q7dx3): 0; NCI Score (DLD-1 colon xenografts; 5 mg/kg i.v. q7dx3): 0; T-C (tumor growth delay to 1000 mm^3) (DLD-1 colon xenografts; 5 mg/kg i.v. q7dx3): 0.0; TF (tumor free animals at the end of study) (DLD-1 colon xenografts; 5 mg/kg i.v. q7dx3, n=6): 0; % T/C (optimal % T/C following final treatment) (DLD-1 colon xenografts; 10 mg/kg i.v. q7dx3): 58%; DRD (drug related deaths, n = 6) (DLD-1 colon xenografts; 10 mg/kg i.v. q7dx3): 0; NCI Score (DLD-1 colon xenografts; 10 mg/kg i.v. q7dx3): 0; T-C (tumor growth delay to 1000 mm^3) (DLD-1 colon xenografts; 10 mg/kg i.v. q7dx3): 4.7; TF (tumor free animals at the end of study) (DLD-1 colon xenografts; 10 mg/kg i.v. q7dx3, n=6): 0; % T/C (optimal % T/C following final treatment) (DLD-1 colon xenografts; 20 mg/kg i.v. q7dx3): −36%; DRD (drug related deaths, n = 6) (DLD-1 colon xenografts; 20 mg/kg i.v. q7dx3): 0; NCI Score (DLD-1 colon xenografts; 20 mg/kg i.v. q7dx3): 2; T-C (tumor growth delay to 1000 mm^3) (DLD-1 colon xenografts; 20 mg/kg i.v. q7dx3): 19.7; TF (tumor free animals at the end of study) (DLD-1 colon xenografts; 20 mg/kg i.v. q7dx3, n=6): 0; % T/C (optimal % T/C following final treatment) (DLD-1 colon xenografts; 30 mg/kg i.v. q7dx3): −100%; DRD (drug related deaths, n = 6) (DLD-1 colon xenografts; 30 mg/kg i.v. q7dx3): 2; NCI Score (DLD-1 colon xenografts; 30 mg/kg i.v. q7dx3): 3; T-C (tumor growth delay to 1000 mm^3) (DLD-1 colon xenografts; 30 mg/kg i.v. q7dx3): 26.4; TF (tumor free animals at the end of study) (DLD-1 colon xenografts; 30 mg/kg i.v. q7dx3, n=6): 0
